From US9770446B2, “Piperidine urea derivatives” (MERCK PATENT GMBH, priority 2013, dated 2017)

Columns and labels:
Tankyrase = assay: Cellular inhibition of Tankyrase: Axin2 level in DLD1 cells (Luminex); type: cell-based; details: 24 hours, Axin2 increase, read-out: EC50 [M] TNKS cellular assay
Description: Measurement of Cellular Inhibition of Tankyrase
Since Tankyrases have been described to modulate cellular level of Axin2 (Huang et al., 2009; Nature) the increase of Axin2 level is used as read-out for determination of cellular inhibition of Tankyrases in a Luminex based assay.
Cells of the colon carcinoma cell line DLD1 are plated in 96 well plates with 1.5×10^4 cells per well. Next day, cells are treated with a serial dilution of test compound in seven steps as triplicates with a final DMSO concentration of 0.3%. After 24 hours, cells are lysed in lysis buffer (20 mM Tris/HCl pH 8.0, 150 mM NaCl, 1% NP40, 10% Glycerol) and lysates are cleared by centrifugation through a 96 well filter plate (0.65 μm). Axin2 protein is isolated from cell lysates by incubation with a monoclonal anti-Axin2 antibody (R&D Systems #MAB6078) that is bound to fluorescent carboxybeads. Then, bound Axin2 is specifically detected with a polyclonal anti-Axin2 antibody (Cell Signaling #2151) and an appropriate PE-fluorescent secondary antibody. The amount of isolated Axin2 protein is determined in a Luminex^200 machine (Luminex Corporation) according to the manufacturer's instruction by counting 100 events per well. Inhibition of Tankyrase by test compounds results in higher levels of Axin2 which directly correlates with an increase of detectable fluorescence. As controls cells are treated with solvent alone (neutral control) and with a Tankyrase reference inhibitor IWR-2 (3E-06 M) which refers as control for maximum increase of Axin2. For analysis, the obtained data are normalized against the untreated solvent control and fitted for determination of the EC50 values using the Assay Explorer software (Accelrys).

[1] = biological target: T1, GST-tagged Tnks-2 (873-1166 aa) (Homo sapiens, UniProt Q9H2K2); assay: TNKS2 activity ELISA (autoparsylation assay); type: biochemical
T1 construct: GST-tagged Tnks-2 (873-1166 aa, prepared in-house); made in house
Description: (§1) Description of the TNKS1 and TNKS2 ELISA Assay
(§2) Biochemical Activity Testing of TNKS 1 and 2: Activity ELISA (Autoparsylation Assay)
(§3) For analysis of autoparsylation activity of TNKS 1 and 2 an activity ELISA iss performed: In the first step GST tagged TNKS is captured on a Glutathione coated plate. Then the activity assay with biotinylated NAD is performed in the absence/presence of the compounds. During the enzymatic reaction GST tagged TNKS transfers biotinylated ADP-ribose to itself from biotinylated NAD as co-substrate. For the detection streptavidin-HRP conjugate is added that binds to the biotinylated TNKS and is thereby captured to the plates. The amount of biotinylated resp. autoparsylated TNKS is detected with a luminescence substrate for HRP. The level of the luminescence signal correlates directly with the amount of autoparsylated TNKS and therefore with activity of TNKS.
(§4) The activity ELISA is performed in 384 well Glutathione coated microtiter plates (Express capture Glutathione coated plate, Biocat, Heidelberg, Germany). The plates are pre-equilibrated with PBS. Then the plates are incubated with 50 μl 20 ng/well GST-tagged Tnks-1 (1023-1327 aa, prepared in-house), respectively GST-tagged Tnks-2 (873-1166 aa, prepared in-house) in assay buffer (50 mM HEPES, 4 mM Mg-chloride, 0.05% Pluronic F-68, 2 mM DTT, pH 7.7) overnight at 4° C. The plates are washed 3 times with PBS-Tween-20. The wells are blocked by incubation at room temperature for 20 minutes with 50 μl blocking buffer (PBS, 0.05% Tween-20, 0.5% BSA). Afterwards the plates are washed 3 times with PBS-Tween-20. The enzymatic reaction is performed in 50 μl reaction solution (50 mM HEPES, 4 mM Mg-chloride, 0.05% Pluronic F-68, 1.4 mM DTT, 0.5% DMSO, pH 7.7) with 10 μM bio-NAD (Biolog, Life science Inst., Bremen, Germany) as co-substrate in the absence or presence of the test compound (10 dilution concentrations) for 1 hour at 30° C. The reaction is stopped by 3 times washing with PBS-Tween20. For the detection 50 μl of 20 ng/μl Streptavidin, HRP conjugate (MoBiTec, Göttingen, Germany) in PBS/0.05% Tween-20/0.01% BSA are added and the plates are incubated for 30 minutes at room temperature. After three times washing with PBS-Tween-20 50 μl of SuperSignal ELISA Femto Maximum sensitivity substrate solution (ThermoFisherScientific (Pierce), Bonn, Germany) are added. Following a 1 minute incubation at room temperature luminescence signals are measured with an Envision multimode reader (Perkin Elmer LAS Germany GmbH) at 700 nm. The full value used is the inhibitor-free reaction. The pharmacological zero value used is XAV-939 (Tocris) in a final concentration of 5 μM. The inhibitory values (IC50) are determined using either the program Symyx Assay Explorer® or Condosseo® from GeneData.

[2] = biological target: T2, GST-tagged Tnks-1 (1023-1327 aa) (Homo sapiens, UniProt O95271); assay: TNKS1 activity ELISA (autoparsylation assay); type: biochemical
T2 construct: GST-tagged Tnks-1 (1023-1327 aa, prepared in-house); made in house
Description: as §1, §2, §3, §4

His-tagged Parp-1 = biological target: T3, His-tagged Parp-1 (Homo sapiens, UniProt P09874); assay: PARP-1 autoparsylation HTRF assay; type: biochemical
T3 construct: purchased Enzo Life Sciences GmbH, Lörrach, Germany
Description: Description of the PARP1 Assay
Biochemical Activity Testing of PARP-1: Autoparsylation Assay
The autoparsylation assay is run in two steps: the enzymatic reaction in which His-tagged Parp-1 transfers biotinylated ADP-ribose/ADP-ribose to itself from biotinylated NAD/NAD as co-substrate and the detection reaction where a time resolved FRET between cryptate labelled anti-His antibody bound to the His tag of the enzyme and Xlent® labelled-streptavidin bound the biotin-parsylation residue is analysed. The autoparsylation activity is detectable directly via the increase in HTRF signal.
The autoparsylation assay is performed as 384-well HTRF® (Cisbio, Codolet, France) assay format in Greiner low volume nb 384-well microtiter plates. 35 nM His-tagged Parp-1 (human, recombinant, Enzo Life Sciences GmbH, Lörrach, Germany) and a mixture of 125 nM bio-NAD (Biolog, Life science Inst., Bremen, Germany) and 800 nM NAD as co-substrate are incubated in a total volume of 6 μl (100 mM Tris/HCl, 4 mM Mg-chloride, 0.01% IGEPAL® CA630, 1 mM DTT, 0.5% DMSO, pH 8, 13 ng/μl activated DNA (BPS Bioscience, San Diego, US)) in the absence or presence of the test compound (10 dilution concentrations) for 150 min at 23° C. The reaction is stopped by the addition of 4 μl of the Stop/detection solution (70 nM SA-Xlent® (Cisbio, Codolet, France), 2.5 nM Anti-His-K® (Eu-labelled anti-His, Cisbio, Codolet, France) in 50 mM HEPES, 400 mM KF, 0.1% BSA, 20 mM EDTA, pH 7.0). After 1 h incubation at room temperature the HTRF iss measured with an Envision multimode reader (Perkin Elmer LAS Germany GmbH) at excitation wavelength 340 nm (laser mode) and emission wavelengths 615 nm and 665 nm. The ratio of the emission signals is determined. The full value used is the inhibitor-free reaction. The pharmacological zero value used is Olaparib (LClabs, Woburn, US) in a final concentration of 1 μM. The inhibitory values (IC50) are determined using either the program Symyx Assay Explorer® or Condosseo® from GeneData.

ρ-catenin = details: by increasing the levels of the AXIN1 and AXIN2 proteins; cited from earlier work
DLD-1-cancer cells = details: cited from earlier work

T3 sequence (P09874 whole entry): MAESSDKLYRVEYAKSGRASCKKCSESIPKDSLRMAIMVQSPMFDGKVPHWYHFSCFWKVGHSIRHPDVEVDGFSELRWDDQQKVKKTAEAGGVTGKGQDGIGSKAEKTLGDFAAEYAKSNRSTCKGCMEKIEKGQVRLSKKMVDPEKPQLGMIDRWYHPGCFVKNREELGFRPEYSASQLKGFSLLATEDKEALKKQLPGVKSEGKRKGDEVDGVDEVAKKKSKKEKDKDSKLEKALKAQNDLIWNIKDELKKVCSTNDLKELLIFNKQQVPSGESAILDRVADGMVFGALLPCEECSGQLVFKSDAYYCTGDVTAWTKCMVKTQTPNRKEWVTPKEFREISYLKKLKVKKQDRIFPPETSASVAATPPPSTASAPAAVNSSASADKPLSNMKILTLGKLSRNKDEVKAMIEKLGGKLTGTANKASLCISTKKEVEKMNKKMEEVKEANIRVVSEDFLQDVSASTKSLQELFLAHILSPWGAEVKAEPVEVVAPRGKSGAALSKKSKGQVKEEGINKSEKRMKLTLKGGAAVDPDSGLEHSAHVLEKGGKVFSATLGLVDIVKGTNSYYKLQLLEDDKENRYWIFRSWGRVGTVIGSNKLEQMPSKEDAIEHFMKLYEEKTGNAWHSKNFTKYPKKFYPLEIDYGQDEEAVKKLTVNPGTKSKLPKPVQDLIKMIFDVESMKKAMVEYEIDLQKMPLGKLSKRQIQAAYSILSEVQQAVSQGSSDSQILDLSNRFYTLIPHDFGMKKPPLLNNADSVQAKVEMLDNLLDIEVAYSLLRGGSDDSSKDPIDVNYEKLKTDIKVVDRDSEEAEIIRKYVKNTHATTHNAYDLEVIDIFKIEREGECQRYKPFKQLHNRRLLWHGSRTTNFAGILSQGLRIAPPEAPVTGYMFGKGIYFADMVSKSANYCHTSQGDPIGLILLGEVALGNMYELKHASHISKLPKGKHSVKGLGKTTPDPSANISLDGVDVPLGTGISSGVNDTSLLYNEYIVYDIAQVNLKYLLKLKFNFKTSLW
T1 sequence (Q9H2K2 873-1166): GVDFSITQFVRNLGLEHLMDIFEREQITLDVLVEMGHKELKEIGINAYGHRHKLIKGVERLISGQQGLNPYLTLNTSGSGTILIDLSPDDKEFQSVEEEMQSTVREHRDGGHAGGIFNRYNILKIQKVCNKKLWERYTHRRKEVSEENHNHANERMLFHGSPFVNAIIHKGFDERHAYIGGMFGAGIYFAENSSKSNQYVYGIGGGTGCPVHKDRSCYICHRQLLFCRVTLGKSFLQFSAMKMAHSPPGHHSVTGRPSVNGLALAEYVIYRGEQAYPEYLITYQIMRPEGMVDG
T2 sequence (O95271 1023-1327): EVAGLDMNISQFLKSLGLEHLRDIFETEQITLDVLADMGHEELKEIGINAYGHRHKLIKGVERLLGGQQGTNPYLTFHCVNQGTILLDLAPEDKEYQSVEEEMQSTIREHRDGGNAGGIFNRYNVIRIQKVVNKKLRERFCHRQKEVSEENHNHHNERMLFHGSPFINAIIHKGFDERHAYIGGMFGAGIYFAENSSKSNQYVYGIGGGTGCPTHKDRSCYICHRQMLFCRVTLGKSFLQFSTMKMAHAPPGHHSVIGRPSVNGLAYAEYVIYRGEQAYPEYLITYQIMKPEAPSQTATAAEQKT

SMILES	EC50 (Tankyrase) [M]	IC50 [1] [nM]	IC50 [2] [nM]	IC50 (His-tagged Parp-1) [nM]	Wnt-stimulated accumulation of ρ-catenin (ρ-catenin)	growth of DLD-1-cancer cells (DLD-1-cancer cells)
COCCn1cc(-c2ccc(C(=O)C3CCN(C(=O)N(C)c4ccc(OC)cc4)CC3)cc2)cn1 [Compound A30, 4-{4-[1-(2-methoxy-ethyl)-1H-pyrazol-4-yl]-benzoyl}-piperidine-1-carboxylic acid (4-methoxy-phenyl)-methyl-amide]	< 3e-07	< 300	< 300	3000 to 50000		
COCCn1cc(-c2ccc(N(C)C(=O)N3CCC(C(=O)c4ccc(OC)cc4)CC3)cc2)cn1 [Compound A31, 4-(4-methoxy-benzoyl)-piperidine-1-carboxylic acid {4-[1-(2-methoxy-ethyl)-1H-pyrazol-4-yl]-phenyl}-methyl-amide]	< 3e-07	< 300	< 300	3000 to 50000		
COCCn1cc(-c2ccc(C(=O)C3CCN(C(=O)N(C)c4ccc(-c5cnn(CCOC)c5)cc4)CC3)cc2)cn1 [Compound A32, 4-{4-[1-(2-methoxy-ethyl)-1H-pyrazol-4-yl]-benzoyl}-piperidine-1-carboxylic acid {4-[1-(2-methoxy-ethyl)-1H-pyrazol-4-yl]-phenyl}-methyl-amide]	< 3e-07	< 300	< 300	3000 to 50000		
CCn1cc(-c2ccc(C(=O)C3CCN(C(=O)N(C)c4ccc(OC)cc4)CC3)cc2)cn1 [Compound A33, 4-[4-(1-ethyl-1H-pyrazol-4-yl)-benzoyl]-piperidine-1-carboxylic acid (4-methoxy-phenyl)-methyl-amide]	< 3e-07	< 300	< 300	3000 to 50000		
CCn1cc(-c2ccc(N(C)C(=O)N3CCC(C(=O)c4ccc(OC)cc4)CC3)cc2)cn1 [Compound A34, 4-(4-methoxy-benzoyl)-piperidine-1-carboxylic acid [4-(1-ethyl-1H-pyrazol-4-yl)-phenyl]-methyl-amide]	< 3e-07	< 300	< 300	3000 to 50000		
COc1ccc(N(C)C(=O)N2CCC(C(=O)c3ccc(-c4cnn(CCN5CCCC5)c4)cc3)CC2)cc1 [Compound A35, 4-{4-[1-(2-pyrrolidin-1-yl-ethyl)-1H-pyrazol-4-yl]-benzoyl}-piperidine-1-carboxylic acid (4-methoxy-phenyl)-methyl-amide]	< 3e-07	< 300	< 300	3000 to 50000		
COc1ccc(C(=O)C2CCN(C(=O)N(C)c3ccc(-c4cnn(CCN5CCCC5)c4)cc3)CC2)cc1 [Compound A36, 4-(4-methoxy-benzoyl)-piperidine-1-carboxylic acid methyl-{4-[1-(2-pyrrolidin-1-yl-ethyl)-1H-pyrazol-4-yl]-phenyl}-amide]	< 3e-07	< 300	< 300	3000 to 50000		
CCOC(=O)CN(C(=O)N1CCC(C(=O)c2ccccc2)CC1)c1ccccc1 [Compound A39, [(4-benzoyl-piperidine-1-carbonyl)-phenyl-amino]-acetic acid ethyl ester]	3e-07 to 3e-06	< 300	< 300	3000 to 50000		
Oc1nc(-c2ccc(C(F)(F)F)cc2)nc2c1CSCC2 [XAV939]					blocked	inhibits growth
